Tests used:
[1] = Clast in po dosed human receiving 1000 mg cumulative dose and reporting drug-associated depression reported on day 24 at 200 mg daily for 3 days followed by weekly dose of 200 mg for 6 months; format: ADME, organism-based; details: in vivo, read-out: Clast
[2] = Trough concentration in po dosed human at 200 mg daily for 3 days followed by weekly dose of 200 mg for 6 months after 4 weeks; format: ADME, organism-based; details: in vivo, read-out: Cmin
[3] = Half life po dosed human receiving 400 mg cumulative dose and reporting drug-associated diarrhea and/or abdominal pain on day 2 at 200 mg daily for 3 days followed by weekly dose of 200 mg for 6 months; format: ADME, organism-based, Abdomen; details: in vivo
[4] = Clast in po dosed human […] and reporting drug-associated hyperesthesia on day 12 dosed at 200 mg daily for 3 days followed by weekly dose of 200 mg for 6 months; format: ADME, organism-based; details: in vivo, read-out: Clast
[5] = Clast in po dosed human receiving 600 mg cumulative dose and reporting drug-associated vomiting and/or nausea reported on day 3 at 200 mg daily for 3 days followed by weekly dose of 200 mg for 6 months; format: ADME, organism-based; details: in vivo, read-out: Clast
[6] = Apparent clearance with respect to the bioavailability po dosed human receiving 200 mg cumulative dose and reporting drug-associated insomnia reported on day 1 at 200 mg daily for 3 days followed by weekly dose of 200 mg for 6 months; format: ADME, organism-based; details: in vivo
[7] = Tmax in human administered with standard high-fat meal; format: ADME, organism-based; details: in vivo
[8] = Clast in po dosed human receiving 1000 mg cumulative dose and reporting drug-associated abdominal pain on day 20 at 200 mg daily for 3 days followed by weekly dose of 200 mg for 6 months; format: ADME, organism-based, Abdomen; details: in vivo, read-out: Clast
[9] = Apparent volume of distribution with respect to the bioavailability in po dosed human receiving 800 mg cumulative dose and reporting drug-associated hyperesthesia on day 12 at 200 mg daily for 3 days followed by weekly dose of 200 mg for 6 months; format: ADME, organism-based; details: in vivo, read-out: Vc/F
[10] = Half life po dosed human receiving 1000 mg cumulative dose and reporting drug-associated depression on day 24 at 200 mg daily for 3 days followed by weekly dose of 200 mg for 6 months; format: ADME, organism-based; details: in vivo
[11] = Apparent volume of distribution with respect to the bioavailability in po dosed human receiving 1000 mg cumulative dose and reporting drug-associated abdominal pain on day 20 at 200 mg daily for 3 days followed by weekly dose of 200 mg for 6 months; format: ADME, organism-based, Abdomen; details: in vivo, read-out: Vc/F
[12] = Apparent clearance with respect to the bioavailability in human at 600 mg cumulative dose with vomiting and/or nausea reported on day 3 at 200 mg daily for 3 days followed by weekly dose of 200 mg for 6 months, po; format: ADME, organism-based; details: in vivo
[13] = Trough concentration in po dosed human at 200 mg daily for 3 days followed by weekly dose of 200 mg for 6 months after 16 weeks; format: ADME, organism-based; details: in vivo, read-out: Cmin
[14] = Half life po dosed human receiving 800 mg cumulative dose and reporting drug-associated hyperesthesia on day 12 at 200 mg daily for 3 days followed by weekly dose of 200 mg for 6 months; format: ADME, organism-based; details: in vivo
[15] = Apparent clearance with respect to the bioavailability po dosed human receiving 1000 mg cumulative dose and reporting drug-associated depression on day 24 at 200 mg daily for 3 days followed by weekly dose of 200 mg for 6 months; format: ADME, organism-based; details: in vivo
[16] = Apparent volume of distribution with respect to the bioavailability in po dosed human receiving 1000 mg cumulative dose and reporting drug-associated depression on day 24 at 200 mg daily for 3 days followed by weekly dose of 200 mg for 6 months; format: ADME, organism-based; details: in vivo, read-out: Vc/F
[17] = Half life po dosed human receiving 1000 mg cumulative dose and reporting drug-associated vomiting and/or nausea on day 3 at 200 mg daily for 3 days followed by weekly dose of 200 mg for 6 months; format: ADME, organism-based; details: in vivo
[18] = Half life po dosed human receiving 1000 mg cumulative dose and reporting drug-associated abdominal pain on day 20 at 200 mg daily for 3 days followed by weekly dose of 200 mg for 6 months; format: ADME, organism-based, Abdomen; details: in vivo
[19] = Apparent volume of distribution with respect to the bioavailability in po dosed human receiving 400 mg cumulative dose and reporting drug-associated insomnia on day 1 at 200 mg daily for 3 days followed by weekly dose of 200 mg for 6 months; format: ADME, organism-based; details: in vivo, read-out: Vc/F
[20] = Half life in po dosed human at 200 mg daily for 3 days followed by weekly dose of 200 mg for 6 months; format: ADME, organism-based; details: in vivo
[21] = Trough concentration in po dosed human at 200 mg daily for 3 days followed by weekly dose of 200 mg for 6 months after 8 weeks; format: ADME, organism-based; details: in vivo, read-out: Cmin
[22] = Tmax in fasted human; format: ADME, organism-based; details: in vivo
[23] = Apparent clearance with respect to the bioavailability po dosed human receiving 1000 mg cumulative dose and reporting drug-associated abdominal pain on day 20 at 200 mg daily for 3 days followed by weekly dose of 200 mg for 6 months; format: ADME, organism-based, Abdomen; details: in vivo
[24] = Apparent volume of distribution with respect to the bioavailability in po dosed human receiving 600 mg cumulative dose and reporting drug-associated vomiting and/or nausea on day 3 at 200 mg daily for 3 days followed by weekly dose of 200 mg for 6 months; format: ADME, organism-based; details: in vivo, read-out: Vc/F
[25] = Half life po dosed human receiving 200 mg cumulative dose and reporting drug-associated insomnia on day 1 at 200 mg daily for 3 days followed by weekly dose of 200 mg for 6 months; format: ADME, organism-based; details: in vivo
[26] = Apparent volume of distribution with respect to bioavailability in po dosed human at 200 mg daily for 3 days followed by weekly dose of 200 mg for 6 months; format: ADME, organism-based; details: in vivo, read-out: Vc/F
[27] = Apparent volume of distribution with respect to the bioavailability in po dosed human receiving 400 mg cumulative dose and reporting drug-associated diarrhea and/or abdominal pain on day 2 at 200 mg daily for 3 days followed by weekly dose of 200 mg for 6 months; format: ADME, organism-based, Abdomen; details: in vivo, read-out: Vc/F
[28] = Apparent clearance with respect to the bioavailability po dosed human receiving 400 mg cumulative dose and reporting drug-associated diarrhea and/or abdominal pain on day 2 at 200 mg daily for 3 days followed by weekly dose of 200 mg for 6 months; format: ADME, organism-based, Abdomen; details: in vivo
[29] = Apparent clearance with respect to the bioavailability po dosed human receiving 800 mg cumulative dose and reporting drug-associated with hyperesthesia on day 12 at 200 mg daily for 3 days followed by weekly dose of 200 mg for 6 months; format: ADME, organism-based; details: in vivo
[30] = Apparent clearance with respect to bioavailability in po dosed human at 200 mg daily for 3 days followed by weekly dose of 200 mg for 6 months; format: ADME, organism-based; details: in vivo

concentration at 72 h [1]: 275 ng/mL
concentration at 672 h [2]: 221 ng/mL
half-life [3]: 12 days
concentration at 72 h [4]: 283 ng/mL
concentration at 72 h [5]: 315 ng/mL
CL/F [6]: 0.983 mL/min/kg
Tmax [7]: 1.1 days
concentration at 72 h [8]: 253 ng/mL
Vd/F [9]: 20.7 L/kg
half-life [10]: 12 days
Vd/F [11]: 27.8 L/kg
CL/F [12]: 1.28 mL/min/kg
concentration at 2688 h [13]: 221 ng/mL
half-life [14]: 13.1 days
CL/F [15]: 1.02 mL/min/kg
Vd/F [16]: 25.1 L/kg
half-life [17]: 9.8 days
half-life [18]: 15.1 days
Vd/F [19]: 23.2 L/kg
half-life [20]: 12.7 days
concentration at 1344 h [21]: 221 ng/mL
Tmax [22]: 0.775 days
CL/F [23]: 0.883 mL/min/kg
Vd/F [24]: 26.1 L/kg
half-life [25]: 11.3 days
Vd/F [26]: 1900 L
Vd/F [27]: 24.4 L/kg
CL/F [28]: 0.983 mL/min/kg
CL/F [29]: 0.767 mL/min/kg
CL/F [30]: 72.8 mL/min
Compound: COc1cc(C)c2c(Oc3cccc(C(F)(F)F)c3)c(OC)cc(NC(C)CCCN)c2n1 (stereo not given) [TAFENOQUINE]
